Reference: article PMC8370201, “Amaryllidaceae Alkaloid Cherylline Inhibits the Replication of Dengue and Zika Viruses” (Antimicrobial Agents and Chemotherapy, 2021)
“Also recorded” adds a separate entry of the source. Read-outs that look alike come from different tables or passages of the source.

Experiments:
DENVGFP [1] = assay: Time-of-drug-addition and -removal assays, DENVGFP in Huh7 cells; type: cell-based, dengue virus (DENV); conditions: Huh7, treated 2 h prior to infection, removed 2 hpi, microscopy
Experimental: For the time-of-drug-addition assay, at the time of infection, AAs were added in wells corresponding to 0 h. At 2 hpi, viral inoculum was removed from every well, and AAs were added back to wells corresponding to 0 h and 2 h. At 4, 7, 12, and 24 hpi, AAs or DMSO diluted in DMEM was added to the appropriate wells. After 72 h, cells were trypsinized and fixed in 4% formaldehyde to measure the percentage of infected cells on an FC500 MPL cytometer. Alternatively, pictures of Hoechst 33342-stained cells were acquired on an Axio Observer microscope. All assays were performed in triplicate.
At 2 hpi, plates were washed, and medium was replaced to remove remaining viruses in the supernatant. AAs were added back to all wells, except the ones corresponding to 2 h of treatment, in which fresh medium exclusive of any AA was added. Accordingly, after 4, 7, and 12 h of infection, the supernatant was replaced by fresh medium in corresponding wells. After 72 h of incubation, results were acquired as for the time-of-drug-addition assay. All assays were performed in triplicate.

[2] = Cell viability (ATP, Cell-Titer GLO) in Huh7.5 cells; type: cell-based; conditions: human
Experimental: Where indicated for Huh7.5 and Vero E6 cells and PBMCs, cell viability was measured by monitoring of cellular ATP levels using the Cell-Titer GLO assay kit (Promega). Briefly, 10× 10^3 to 20 × 10^3 cells in 50 to 100 μl were seeded in 48-well or 96-well plates and cultured overnight. AAs were added at the designated concentrations for 24 or 48 h, as specified in the text. Then, 50 to 100 μl of room temperature Cell-Titer GLO reagent was added in each well to room temperature-equilibrated cell plates. Plates were rocked for 2 min and rested for 10 min, and the luminescence signal was measured using a microplate spectrophotometer (Biotek Synergy H1 or Tecan Spark multimode microplate reader). Viability was expressed as a fold change calculated using the value of DMSO-treated cells at each concentration; for each AA and CC50, values were determined.

DENV2 16881s = assay: Plaque assay, infectious titers of WT DENV2 16881s from Huh7.5 cells; type: cell-based, dengue virus (DENV); conditions: AAs 50 μM, treated 2 hpi, supernatant 48 h later
Experimental: Huh7.5 cells were infected with DENV 16881s, ZIKV H/PF/2013, or ZIKV MR766 (MOI, 0.1) or left uninfected. […] Supernatants were harvested 2 days pi, and PFU were determined by plaque assay on VeroE6 cells. Cells incubated overnight (2 × 10^5 cells/well in 24-well plates) were infected with 10-fold serially diluted virus-containing supernatants for 2 h at 37°C. Inoculum was then replaced with MEM (Life Technologies) containing 1.5% carboxymethylcellulose (Millipore-Sigma). ZIKV- and DENV-infected cells were incubated for 5 and 7 days, respectively. One volume of 10% formaldehyde was added to the cells for fixation. Two hours later, cells were washed with tap water and stained with a 1% crystal violet/10% ethanol solution for 30 min. Wells were rinsed with tap water, and the number of plaques were counted to calculate virus titers.

ZIKV H/PF/2013 = assay: Plaque assay, infectious titers of WT ZIKV H/PF/2013 from Huh7.5 cells; type: cell-based, Zika virus (ZIKV); conditions: treated 2 hpi, supernatant 48 h later
ZIKV MR766 = assay: Plaque assay, infectious titers of WT ZIKV MR766 from Huh7.5 cells; type: cell-based, Zika virus (ZIKV); conditions: treated 2 hpi, supernatant 48 h later
DENVR2A [3] = conditions: CC50/EC50, Huh7.5
ZIKVR2A [4] = conditions: for SI ZIKVR2A (therapeutic selectivity index): CC50/EC50, Huh7.5; for ZIKVR2A replication: Huh7.5 cells
DENVR2A [5] = assay: microbe, parasite or virus in culture; conditions: Dengue virus, Huh7.5, read-out: EC50 (μM) for DENVR2A
ZIKVR2A [6] = assay: microbe, parasite or virus in culture; conditions: Zika virus, Huh7.5, read-out: EC50 (μM) for ZIKVR2A, Huh7.5 cells, luciferase at 48 hpi
DENVGFP [7] = assay: DENVGFP reporter virus infection of Huh7 cells (flow cytometry / microscopy); conditions: for anti-DENV activity in screening (GFP microscopy, words): Huh7, treated 2 h before DENVGFP MOI 0.15, 72 hpi, at the chosen concentration
Huh7 cells = assay: XTT cytotoxicity assay in Huh7 cells; type: cell-based, human; conditions: 0.4 to 400 μM, 72 hours
Experimental: Cytotoxicity properties were titrated by metabolism monitoring using the XTT [2,3-bis-(2-methoxy-4-nitro-5-sulfophenyl)-2H-tetrazolium-5-carboxanilide] assay kit (Roche, Millipore Sigma), as described before ([24]). Briefly, Huh7 cells were seeded at 10 × 10^3 cells per well in 96-well plates. […] After 72 h of incubation, medium was replaced by phenol-free DMEM (Wisent) containing 0.3 mg/ml XTT, and cells were incubated for 4 h. Absorbance was measured at 450nm using a microplate spectrophotometer (Synergy H1, Biotek). Treatment conditions with 0.5% DMSO were used as the reference control. The percentage of cell viability was calculated at each concentration.

## O[C@H]1C=C[C@@]23CCN(Cc4cc5c(cc42)OCO5)[C@@H]3C1 [Crinine, crinine]
DENVGFP [1]
  infection after removal of compound 2 hpi vs continuous treatment: restored virus replication completely

## OC1CC2N3CCC2(c2cc4c(cc2C3)OCO4)C2OC12 (stereo not shown) [Flexinine, flexinine]
[2]
  CC50 at 48 h: > 250 µM
DENV2 16881s
  production of DENV infectious particles (words): no effects on DENV production; also recorded: little effect
ZIKV H/PF/2013
  production of ZIKV H/PF/2013 infectious particles (words): marginal effects on ZIKV production; also recorded: little effect
ZIKV MR766
  production of ZIKV MR766 infectious particles (words): marginal effects on ZIKV production; also recorded: little effect
DENVGFP [1]
  infection after removal of compound 2 hpi vs continuous treatment: restored virus replication completely
DENVR2A [3]
  SI DENVR2A (therapeutic selectivity index): >3.9
ZIKVR2A [4]
  SI ZIKVR2A (therapeutic selectivity index): >1.15
  ZIKVR2A replication: did not significantly impact ZIKVR2A replication
DENVR2A [5]
  EC50: 63.4 µM
ZIKVR2A [6]
  EC50: 216 µM
DENVGFP [7]
  anti-DENV activity in screening (GFP microscopy, words): moderate

## COc1cc2c(cc1OC)[C@@H](c1ccc(O)cc1)CN(C)C2 [Gigantelline, gigantelline]
DENVGFP [7]
  anti-DENV activity in screening (GFP microscopy, words): weak

## COc1ccc([C@@H]2CN(C)Cc3cc(O)c(OC)cc32)cc1O [Gigantellinine, gigantellinine]
[2]
  CC50 at 48 h: > 250 µM
DENV2 16881s
  production of DENV infectious particles (words): little effect
DENV2 16881s; listed as gigantellinine
  production of DENV infectious particles (words): no effects on DENV production
ZIKV H/PF/2013
  production of ZIKV H/PF/2013 infectious particles (words): little effect
ZIKV H/PF/2013; listed as gigantellinine
  production of ZIKV H/PF/2013 infectious particles (words): marginal effects on ZIKV production
ZIKV MR766
  production of ZIKV MR766 infectious particles (words): little effect
ZIKV MR766; listed as gigantellinine
  production of ZIKV MR766 infectious particles (words): marginal effects on ZIKV production
DENVGFP [1]
  infection after removal of compound 2 hpi vs continuous treatment: restored virus replication completely
DENVR2A [3]
  SI DENVR2A (therapeutic selectivity index): >2.3
ZIKVR2A [4]
  ZIKVR2A replication: did not significantly impact ZIKVR2A replication
DENVR2A [5]
  EC50: 105 µM
ZIKVR2A [6]
  EC50: > 250 µM
DENVGFP [7]
  anti-DENV activity in screening (GFP microscopy, words): moderate

## O=c1c2cc3c(cc2c2cccc4ccn1c42)OCO3 [Hippadine, hippadine]
Huh7 cells
  cytotoxic activity of AAs: cytotoxic
[2]; Huh7.5 cells, Huh7.5, ATP, 48 h posttreatment, read-out: CC50
  CC50 at 48 h: 176 µM
DENV2 16881s
  production of DENV infectious particles (words): little effect
DENV2 16881s; listed as hippadine
  production of DENV infectious particles (words): no effects on DENV production
ZIKV H/PF/2013; AAs 50 μM
  decrease in ZIKV H/PF/2013 viral titer: 3 fold
  decrease in ZIKV H/PF/2013 viral titers: 70%
ZIKV MR766
  production of ZIKV MR766 infectious particles (words): little effect
DENVGFP [1]
  infection after removal of compound 2 hpi vs continuous treatment: restored virus replication completely
DENVR2A [3]
  SI DENVR2A (therapeutic selectivity index): 2.38
ZIKVR2A [4]
  SI ZIKVR2A (therapeutic selectivity index): 1.54
  ZIKVR2A replication: did not significantly impact ZIKVR2A replication
DENVR2A [5]
  EC50: 73.8 µM
ZIKVR2A [6]
  EC50: 114 µM
DENVGFP [7]
  anti-DENV activity in screening (GFP microscopy, words): moderate

## CN1CC[C@@]23C=C[C@H](O)C[C@@H]2Oc2c(O)ccc(c23)C1 [Sanguinine, sanguinine]
DENVGFP [1]
  infection after removal of compound 2 hpi vs continuous treatment: restored virus replication completely
DENVGFP [7]
  anti-DENV activity in screening (GFP microscopy, words): very weak

## NC(=O)c1ncn([C@@H]2O[C@H](CO)[C@@H](O)[C@H]2O)n1 [ribavirin, reference compound]
DENVGFP [7]; Dengue virus, Huh-7, read-out: EC50, DENVGFP infection
  EC50: 100 µM
